Patent US8436043B2 (Takeda Pharmaceutical Company Limited, priority 2008, dated 2013)

Target: T1, human glucagon receptor (Homo sapiens, UniProt P47871)
T1 construct: made in house; host or cells: FreeStyle CHO cells, transient transfection with pMSRαneo/hGCGR; membrane fraction (35,000 rpm pellet)
Assay: Glucagon binding inhibitory activity ([125I]-glucagon binding to glucagon receptor membrane protein)
Settings: human glucagon receptor membrane protein, [125I]-glucagon, 90 min room temperature
In short: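 Receptor source was a membrane fraction of transiently transfected CHO cells bearing human receptor; 90 min room-temperature binding, filtration harvest, scintillation counting.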

T1 sequence (P47871 26-477): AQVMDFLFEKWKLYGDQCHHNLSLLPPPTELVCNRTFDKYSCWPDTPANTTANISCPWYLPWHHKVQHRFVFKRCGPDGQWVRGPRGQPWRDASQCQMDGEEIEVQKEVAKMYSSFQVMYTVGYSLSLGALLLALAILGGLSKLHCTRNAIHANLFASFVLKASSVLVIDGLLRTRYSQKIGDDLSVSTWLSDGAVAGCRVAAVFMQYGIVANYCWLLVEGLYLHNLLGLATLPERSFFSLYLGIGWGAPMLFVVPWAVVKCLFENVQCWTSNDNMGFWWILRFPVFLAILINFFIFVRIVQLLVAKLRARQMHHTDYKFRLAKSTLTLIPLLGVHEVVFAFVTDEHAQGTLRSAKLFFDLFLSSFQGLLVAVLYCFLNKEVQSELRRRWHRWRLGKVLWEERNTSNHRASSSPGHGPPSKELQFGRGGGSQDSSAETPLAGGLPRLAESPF

SMILES	IC50 [µM]
Cc1c(C(Nc2ccc(C(=O)NCCC(=O)O)cc2)C2CCCCC2)oc2ccccc12 (stereo not drawn) [Example A17, 3-{[(4-{[cyclohexyl(3-methyl-1-benzofuran-2-yl)methyl]amino}phenyl)carbonyl]amino}propanoic acid]	0.23
Cc1nn(Cc2ccccc2)cc1C(Nc1ccc(C(=O)NCCC(=O)O)cc1)C1CCCCC1 (stereo not drawn) [Example 41, 3-{[(4-{[(1-benzyl-3-methyl-1H-pyrazol-4-yl)(cyclohexyl)methyl]amino}phenyl)carbonyl]amino}propanoic acid]	2.3

Same assay, conditions: test compound 10 μM; 0.4% DMSO = 0%, non-labeled glucagon 1 μM = 100%; read-out: inhibitory rate (%) at 10 μM

SMILES	inhibition at 10 µM [%]
Cc1c(C(Nc2ccc(C(=O)N(C)CCC(=O)O)cc2)C2CCCCC2)oc2ccc(Cl)cc12 (stereo not drawn) [Example A89]	80
Cc1c(C(Nc2ccc(C(=O)NCCC(=O)O)cc2)C2CCCCC2)oc2ccccc12 (stereo not drawn) [Example A17, 3-{[(4-{[cyclohexyl(3-methyl-1-benzofuran-2-yl)methyl]amino}phenyl)carbonyl]amino}propanoic acid]	72
CCc1nn(-c2cc(F)cc(F)c2)cc1C(Nc1ccc(C(=O)N(C)CCC(=O)O)cc1)C1CCCCC1 (stereo not drawn) [Example 87, 3-[{[4-({cyclohexyl[1-(3,5-difluorophenyl)-3-ethyl-1H-pyrazol-4-yl]methyl}amino)phenyl]carbonyl}(methyl)amino]propanoic acid]	64
COc1cc(OC)cc(-n2cc(C(Nc3ccc(C(=O)NCCC(=O)O)cc3)C3CCCCC3)c(C)n2)c1 (stereo not drawn) [Example 82, 3-({[4-({cyclohexyl[1-(3,5-dimethoxyphenyl)-3-methyl-1H-pyrazol-4-yl]methyl}amino)phenyl}carbonyl]amino)propanoic acid]	78
COc1ccc2oc(C(Nc3ccc(C(=O)NCCC(=O)O)cc3)C3CCCCC3)c(Br)c2c1 (stereo not drawn) [Example A102, 3-{[(4-{[(3-bromo-5-methoxy-1-benzofuran-2-yl)(cyclohexyl)methyl]amino}phenyl)carbonyl]amino}propanoic acid]	68
COc1nn(-c2ccc(OC(F)(F)F)cc2)cc1C(Nc1ccc(C(=O)NCCC(=O)O)cc1)C1CCCCC1 (stereo not drawn) [Example 62, 3-[({4-[(cyclohexyl{3-methoxy-1-[4-(trifluoromethoxy)phenyl]-1H-pyrazol-4-yl}methyl)amino]phenyl}carbonyl)amino]propanoic acid]	68
Cc1c(C(Nc2ccc(C(=O)NCCC(=O)O)cn2)C2CCCCC2)oc2ccc(F)cc12 (stereo not drawn) [Example A51, 3-{[(6-{[cyclohexyl(5-fluoro-3-methyl-1-benzofuran-2-yl)methyl]amino}pyridin-3-yl)carbonyl]amino}propanoic acid]	71
CCC(CC)C(Nc1ccc(C(=O)NCCC(=O)O)cc1)c1oc2ccc(OC)cc2c1C (stereo not drawn) [Example A104, 3-{[(4-{[2-ethyl-1-(5-methoxy-3-methyl-1-benzofuran-2-yl)butyl]amino}phenyl)carbonyl]amino}propanoic acid]	68
O=C(O)CCNC(=O)c1ccc(NC(c2csc3ccccc23)C2CCCCC2)cc1 (stereo not drawn) [Example A1, 3-{[(4-{[1-benzothiophen-3-yl(cyclohexyl)methyl]amino}phenyl)carbonyl]amino}propanoic acid]	76
Cc1c(C(Nc2ccc(C(=O)N(C)CCC(=O)O)cc2)C2CCCCC2)sc2ccccc12 (stereo not drawn) [Example A13, 3-{[(4-{[cyclohexyl(3-methyl-1-benzothiophen-2-yl)methyl]amino}phenyl)carbonyl](methyl)amino}propanoic acid]	85
Cc1nn(-c2ccccc2Cl)cc1C(Nc1ccc(C(=O)N(C)CCC(=O)O)cc1)C1CCCCC1 (stereo not drawn) [Example 73, 3-[{[4-({[1-(2-chlorophenyl)-3-methyl-1H-pyrazol-4-yl](cyclohexyl)methyl}amino)phenyl]carbonyl}(methyl)amino]-propanoic acid]	59
Cc1ccc2oc(C(Nc3ccc(C(=O)N(C)CCC(=O)O)cc3)C3CCCCC3)c(C)c2c1 (stereo not drawn) [Example A91, 3-{[(4-{[cyclohexyl(3,5-dimethyl-1-benzofuran-2-yl)methyl]amino}phenyl)carbonyl](methyl)amino}propanoic acid]	79
COc1ccc(-n2cc(C(Nc3ccc(C(=O)NCCC(=O)O)cc3)C3CCCCC3)c(C3CC3)n2)cc1 (stereo not drawn) [Example 46, 3-({[4-({cyclohexyl[3-cyclopropyl-1-(4-methoxyphenyl)-1H-pyrazol-4-yl]methyl}amino)phenyl]carbonyl}amino)propanoic acid]	71
Cc1c(C(Nc2ccc(C(=O)N(C)CCC(=O)O)cc2)C(C)C)oc2ccc(OCc3ccccc3)cc12 (stereo not drawn) [Example A85, 3-[{[4-({1-[5-(benzyloxy)-3-methyl-1-benzofuran-2-yl]-2-methylpropyl}amino)phenyl]carbonyl}(methyl)amino]propanoic acid]	82
Cc1nn(Cc2ccccc2)cc1C(Nc1ccc(C(=O)NCCC(=O)O)cc1)C1CCCCC1 (stereo not drawn) [Example 41, 3-{[(4-{[(1-benzyl-3-methyl-1H-pyrazol-4-yl)(cyclohexyl)methyl]amino}phenyl)carbonyl]amino}propanoic acid]	60
Cc1c(C(Nc2ccc(C(=O)NCCC(=O)O)cc2)C2CCCCC2)sc2ccccc12 (stereo not drawn) [Example A10, 3-{[(4-{[cyclohexyl(3-methyl-1-benzothiophen-2-yl)methyl]amino}phenyl)carbonyl]amino}propanoic acid]	80
Cc1c(C(Nc2ccc(C(=O)NCCC(=O)O)cc2)C2CCCCC2)oc2cc(F)ccc12 (stereo not drawn) [Example A96, 3-{[(4-{[cyclohexyl(6-fluoro-3-methyl-1-benzofuran-2-yl)methyl]amino}phenyl)carbonyl]amino}propanoic acid]	76
Cc1nn(-c2ncc(C(F)(F)F)cc2Cl)cc1C(Nc1ccc(C(=O)N(C)CCC(=O)O)cc1)C1CCCCC1 (stereo not drawn) [Example 32, 3-{[(4-{[{1-[3-chloro-5-(trifluoromethyl)pyridin-2-yl]-3-methyl-1H-pyrazol-4-yl}(cyclohexyl)methyl]amino}phenyl)carbonyl](methyl)amino}-propanoic acid]	59
Cc1c(C(COc2ccccc2)Nc2ccc(C(=O)NCCC(=O)O)cc2)oc2ccccc12 (stereo not drawn) [Example A94, 3-{[(4-{[1-(3-methyl-1-benzofuran-2-yl)-2-phenoxyethyl]amino}phenyl)carbonyl]amino}propanoic acid]	57

Next, values leading:

inhibition at 10 µM [%]	SMILES
74	COCCOc1ccc2oc(C(Nc3ccc(C(=O)N(C)CCC(=O)O)cc3)C(C)C)c(C)c2c1 (stereo not drawn) [Example A173, 3-[{[4-({1-[5-(2-methoxyethoxy)-3-methyl-1-benzofuran-2-yl]-2-methylpropyl}amino)phenyl]carbonyl}(methyl)amino]propanoic acid]
76	CCC(CC)C(Nc1ccc(C(=O)N(C)CCC(=O)O)cc1)c1sc2ccccc2c1C (stereo not drawn) [Example A135, 3-{[(4-{[2-ethyl-1-(3-methyl-1-benzothiophen-2-yl)butyl]amino}phenyl)carbonyl](methyl)amino}propanoic acid]
88	Cc1c(C(Nc2ccc(C(=O)N(C)CCC(=O)O)cc2)C2CCCCC2)oc2ccc(-c3cnn(C)c3)cc12 (stereo not drawn) [Example A181, 3-[{[4-({cyclohexyl[3-methyl-5-(1-methyl-1H-pyrazol-4-yl)-1-benzofuran-2-yl]methyl}amino)phenyl]carbonyl}(methyl)amino]propanoic acid]
78	CSCCCOc1ccc2oc(C(Nc3ccc(C(=O)NCCC(=O)O)cc3)C3CCCCC3)c(C)c2c1 (stereo not drawn) [Example A151, 3-[({4-[(cyclohexyl{3-methyl-5-[3-(methylsulfanyl)propoxy]-1-benzofuran-2-yl}methyl)amino]phenyl}carbonyl)amino]propanoic acid]
67	CCC(CC)C(Nc1ccc(C(=O)N(C)CCC(=O)O)cc1)c1oc2ccc(OC)cc2c1C (stereo not drawn) [Example A105, 3-{[(4-{[2-ethyl-1-(5-methoxy-3-methyl-1-benzofuran-2-yl)butyl]amino}phenyl)carbonyl](methyl)amino}propanoic acid]
75	Cc1c(C(C)Nc2ccc(C(=O)N(C)CCC(=O)O)cc2)oc2ccc(OCc3ccccc3)cc12 (stereo not drawn) [Example A166, 3-[{[4-({1-[5-(benzyloxy)-3-methyl-1-benzofuran-2-yl]ethyl}amino)phenyl]carbonyl}(methyl)amino]propanoic acid]
73	COc1ccc2oc(C(CCCCSC)Nc3ccc(C(=O)NCCC(=O)O)cc3)c(C)c2c1 (stereo not drawn) [Example A120, 3-{[(4-{[1-(5-methoxy-3-methyl-1-benzofuran-2-yl)-5-(methylsulfanyl)pentyl]amino}phenyl)carbonyl]amino}propanoic acid]
77	Cc1c(C(Nc2ccc(C(=O)N(C)CCC(=O)O)cc2)C2CCCCC2)sc2cc(C(F)(F)F)cnc12 (stereo not drawn) [Example A146, 3-[{[4-({cyclohexyl[3-methyl-6-(trifluoromethyl)thieno[3,2-b]pyridin-2-yl]methyl}amino)phenyl]carbonyl}(methyl)amino]propanoic acid]
71	Cc1c(C(Nc2ccc(C(=O)NCCC(=O)O)cc2)C2CCCCC2)oc2ccc(Cl)nc12 (stereo not drawn) [Example A127, 3-{[(4-{[(5-chloro-3-methylfuro[3,2-b]pyridin-2-yl)(cyclohexyl)methyl]amino}phenyl)carbonyl]amino}propanoic acid]
58	COc1ccc2oc(C(Nc3ccc(C(=O)NCCC(=O)O)cc3)C3CCCCC3)c(C#N)c2c1 (stereo not drawn) [Example A108, 3-{[(4-{[(3-cyano-5-methoxy-1-benzofuran-2-yl)(cyclohexyl)methyl]amino}phenyl)carbonyl]amino}propanoic acid]
87	Cc1c(C(Nc2ccc(C(=O)N(C)CCC(=O)O)cc2)C2CCCCC2)oc2ccc(NCc3ccccc3)cc12 (stereo not drawn) [Example A131, 3-[{[4-({[5-(benzylamino)-3-methyl-1-benzofuran-2-yl](cyclohexyl)methyl}amino)phenyl]carbonyl}(methyl)amino]-propanoic acid]
80	COCCOCc1c(C(Nc2ccc(C(=O)N(C)CCC(=O)O)cc2)C2CCCCC2)oc2ccc(F)cc12 (stereo not drawn) [Example A133, 3-[({4-[(cyclohexyl{5-fluoro-3-[(2-methoxyethoxy)methyl]-1-benzofuran-2-yl}methyl)amino]phenyl}carbonyl)(methyl)amino]propanoic acid]
